Measured values from patent publication US5948786A, “Piperidinylpyrimidine derivatives” (Sumitomo Pharmaceuticals Company, Limited, priority 1996, dated 1999).

Experiments:
Type in all cases: cell-based
[1] = tested on: HIV-1 LTR-CAT gene expression in Jurkat cells; experiment: PMA induced HIV-1 LTR-CAT gene expression in Jurkat cells; conditions: Homo sapiens, PMA 10 ng/ml, 24 hours
Experimental: (§1) p469, HIV-1 LTR driven CAT and pSV-Tat, Tat-expression vector were kindly provided from Dr. Gary J. Nabel (Nature Vol. 326, 711(1987))
(§2) RPMI 1640 medium (Life Technologies, Grand Island, N.Y., USA) was supplemented with heat-inactivated fetal calf serum (FBS; Sigma, St. Louis, Mo., USA).
(§3) Human T lymphoma cell line, Jurkat, was cultured in medium described above Transfection;
(§4) Introduction of plasmid DNA into cells was carried out according to the method described in Chiang, J. Li et al., Proc. Natl. Acad. Sci. Vol. 92, 5461-5464 (1995). Briefly, the cells were suspended with the medium at 2×10^7 cells/ml followed by addition 1 μg of p469 and 0.5 μg of DEAE-dextran (Sigma). In some experiments the cells were co-transfected with 0.5 μg of pSV-Tat. After 10 minutes incubation at room temperature with occasionally mixing, the cells were pulsed with electroporation apparatus at 140 V. The cells were re-suspended with the fresh medium and cultured for 20 hours at 37° C.
(§5) A compound tested was dissolved in dimethylsulfoxide at 100 mM as a stock solution. The aliquots of the stock solution were kept frozen at -20° C. Jurkat cells transfected with p469 were treated with 10 ng/ml of phorbol 12-myristate 13-acetate (PMA; Sigma) to activate HIV-1-LTR directed CAT gene transcription in the presence of the compound. In the case of cells transfected with p469 and pSV-Tat, they were simply treated with the compound. After the cells were cultured for an additional 24 hours at 37° C., the cells were washed 2 times with phosphate-buffered saline and lysed in 50 mM Tris-HCl plus 15% glycerol with repeated cycles of freeze and thaw. The cell lysates were clarified by centrifugation followed by determination of protein concentration by Bradford method (Bio-Rad, Hercules, Calif., USA). Measurement of a CAT activity in cell lysates was carried out according to a similar method described in Fridovich-Keil J. L. et. al., Cell Growth and Differentiation, Vol. 2, 67-76(1991). Equal amount (30 μg of protein) of cell lysates was incubated at 37° C. with 35 μg of acetyl co-enzyme A (GIBCO/BRL, Grand Island, Mo., USA) and 0.1 μCi of 14C-chloramphenicol (Dupont, NEN Boston, Mass., USA) in […] solution for 2 hours. Acetyl-14C-chloramphenicol was extracted with 9 volumes of ethyl acetate and fractionated on a TLC gel with 1:19 (v/v) in methanol/chloroform. The CAT activity was detected by autoradiography and quantified by an Imaging Densitometer (model GS-700; Bio-Rad).

[2] = tested on: Tat induced HIV-1 LTR-CAT gene expression in Jurkat cells; experiment: Tat induced HIV-1 LTR-CAT gene expression in Jurkat cells; conditions: Homo sapiens, Tat (pSV-Tat), 24 hours
Experimental: as §1, §2, §3, §4, §5

[3] = tested on: TNF α production from human peripheral blood mononuclear cells (PBMC); experiment: Inhibitory activity of compound on TNF α production from PBMC
Experimental: TNF α was induced by 10 μg/ml of LPS (E. coli O111B4, DIFCO, Detroit, Mich., USA) the cells were cultured for 18 hours at 37° C. A compound of the present invention was dissolved in DMSO and added to the culture simultaneously with LPS. […] Each well of the plate first was incubated at room temperature with biotinylated anti-mouse TNF α polyclonal antibodies (PharMingen) for 45 minutes, then with peroxidase-conjugated streptavidin (Kirkegaard & Perry Laboratories Inc., Gaitherburg, Md., USA) for 30 minutes. After each incubation, the plate was washed 4 to 8 times with PBS containing 0.2% Tween 20. TMB (Kirkegaard & Perry Laboratories Inc.) was the peroxidase substrate used and, the absorbance of each well was quantified at 450 nm by a microplatereader (Molecular Devices Corp., CA, USA). TNF α levels in the supernatant were quantified with rm-TNF α as the standard. Inhibitory activity of TNF α production was also quantified using human peripheral blood mononuclear cells(PBMC) instead of PEC's. Results are shown in table 9, 10, 11, 12, 13, 14, 15, 16, 17, 18, 19 and 20.

[4] = tested on: TNF α production from mouse macrophages; experiment: Inhibitory activity of compound on TNF α Production from mouse macrophages (LPS-induced PEC's); conditions: Macrophage, LPS 10 μg/ml, 18 hours
In short: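 Thioglycollate-elicited peritoneal macrophages from female BALB/c mice (adherent, 2×10^5 cells/well) were stimulated with 10 μg/ml LPS plus compound (final DMSO below 0.1%) for 18 h at 37°C. Supernatant TNF α was measured by sandwich ELISA (TMB, 450 nm) against a recombinant mouse TNF α standard.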

| SMILES | inhibition at 5 µM [1] [%] | inhibition at 5 µM [2] [%] | inhibition at 30 µM [3] [%] | inhibition at 30 µM [4] [%] |
| --- | --- | --- | --- | --- |
| Nc1nc(C2CCN(C(=O)c3ccc4c(c3)OCO4)CC2)c2ccccc2n1 [Example 65] | 94 | 81 | 46 | – |
| COc1ccc2nc(N)nc(C3CCN(C(=O)c4ccc5c(c4)OCO5)CC3)c2c1 [Example 117] | 92 | 36 | 43 | 54 |
| Nc1nc(C2CCN(C(=O)c3ccc4c(c3)OCO4)CC2)c2cc(Cl)ccc2n1 [Example 130] | 67 | – | 57 | 100 |
| Nc1nc(-c2ccccc2)cc(C2CCN(C(=O)c3ccc4c(c3)OCO4)CC2)n1 [Example 140] | 100 | – | 35 | 72 |
| Nc1nc(-c2ccc(Cl)cc2)cc(C2CCN(C(=O)c3ccc4c(c3)OCO4)CC2)n1 [Example 150] | 54 | – | 11 | 100 |
| COc1ccc(-c2cc(C3CCN(C(=O)c4ccc5c(c4)OCO5)CC3)nc(N)n2)cc1 [Example 157] | 81 | – | 37 | 84 |
| COc1ccc(Cc2cc(C3CCN(C(=O)c4ccc5c(c4)OCO5)CC3)nc(N)n2)cc1 [Example 210, 2-amino-4-(4-methoxybenzyl)-6-[1-(3,4-methylenedioxybenzoyl)-4-piperidinyl]pyrimidine] | 81 | 66 | 80 | 75 |
| Nc1nc(CCc2ccccc2)cc(C2CCN(C(=O)c3ccc4c(c3)OCO4)CC2)n1 [Example 259] | 25 | 51 | 68 | – |
| COc1ccc(Cc2cc(C3CCN(C(=O)c4ccc5c(c4)OCO5)CC3)nc(N)n2)cc1OC [Example 306] | 75 | 22 | 85 | – |
| COc1ccc(OC)c(Cc2cc(C3CCN(C(=O)c4ccc5c(c4)OCO5)CC3)nc(N)n2)c1 [Example 307] | 97 | 66 | 81 | – |
| COc1cc(Cc2cc(C3CCN(C(=O)c4ccc5c(c4)OCO5)CC3)nc(N)n2)cc(OC)c1OC [Example 309] | – | 62 | 65 | – |
| Nc1nc(Cc2ccccc2Cl)cc(C2CCN(C(=O)c3ccc4c(c3)OCO4)CC2)n1 [Example 310] | – | 67 | 83 | – |
| Nc1nc(Cc2ccc(Cl)c(Cl)c2)cc(C2CCN(C(=O)c3ccc4c(c3)OCO4)CC2)n1 [Example 311] | – | 63 | 69 | – |
| Nc1nc(Cc2ccc(Cl)cc2Cl)cc(C2CCN(C(=O)c3ccc4c(c3)OCO4)CC2)n1 [Example 312] | – | 65 | 57 | – |
| Nc1nc(Cc2c(Cl)cccc2Cl)cc(C2CCN(C(=O)c3ccc4c(c3)OCO4)CC2)n1 [Example 313] | – | 69 | 91 | – |
| Nc1nc(Cc2ccc3c(c2)OCO3)cc(C2CCN(C(=O)c3ccc4c(c3)OCO4)CC2)n1 [Example 314] | – | 76 | 84 | – |
